This note sets out measurements from patent publication US7256190B2, “Thiazole compounds useful as inhibitors of protein kinase” (Vertex Pharmaceuticals Incorporated, priority 2001, dated 2007).

GSK3-β (AA 1-420), sequence (P49841 whole entry, the tested form may be a part): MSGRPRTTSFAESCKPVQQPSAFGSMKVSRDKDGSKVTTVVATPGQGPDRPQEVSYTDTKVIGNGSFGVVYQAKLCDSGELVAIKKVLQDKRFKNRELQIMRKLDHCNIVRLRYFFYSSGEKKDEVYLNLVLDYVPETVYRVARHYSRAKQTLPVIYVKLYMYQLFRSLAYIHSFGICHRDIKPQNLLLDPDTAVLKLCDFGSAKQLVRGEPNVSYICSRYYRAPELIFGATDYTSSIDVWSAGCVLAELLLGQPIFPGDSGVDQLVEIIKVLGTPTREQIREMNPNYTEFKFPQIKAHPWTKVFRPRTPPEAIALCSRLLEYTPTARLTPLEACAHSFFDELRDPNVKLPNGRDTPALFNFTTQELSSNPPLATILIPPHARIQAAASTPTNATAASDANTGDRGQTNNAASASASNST

The first test concerns the target GSK3-β (AA 1-420) (Homo sapiens, UniProt P49841). In words: GSK-3 inhibition assay (coupled enzyme system). It is filed as biochemical. The following applies: 10 μM ATP, 300 μM peptide, 60 nM GSK-3β, 30° C. As to the method:
Compounds were screened for their ability to inhibit GSK3-β (AA 1-420) activity using a standard coupled enzyme system (Fox et al. (1998) Protein Sci. 7, 2249). Reactions were carried out in a solution containing 100 mM HEPES (pH 7.5), 10 mM MgCl2, 25 mM NaCl, 300 μM NADH, 1 mM DTT and 1.5% DMSO. Final substrate concentrations in the assay were 10 μM ATP (Sigma Chemicals, St Louis, Mo.) and 300 μM peptide (HSSPHQS(PO3H2)EDEEE, American Peptide, Sunnyvale, Calif.). Reactions were carried out at 30° C. and 60 nM GSK-3β. Final concentrations of the components of the coupled enzyme system were 2.5 mM phosphoenolpyruvate, 300μM NADH, 30 μg/ml pyruvate kinase and 10 μg/ml lactate dehydrogenase.
An assay stock buffer solution was prepared containing all of the reagents listed above with the exception of ATP and the test compound of interest. 59 μl of the test reaction was placed in a 96 well ½-diameter plate (Corning, Corning, N.Y.) then treated with 1 μl of a 2 mM DMSO stock containing the test compound (final compound concentration 30 μM). The plate was incubated for ˜10 minutes at 30° C. then the reaction initiated by addition of 7 μl of ATP (final concentration 10 μM). Rates of reaction were obtained using a Molecular Devices Spectramax plate reader (Sunnyvale, Calif.) over a 5 minute read time at 30° C.
(§1) The compound numbers correspond to the compound numbers in Table 1.
In general, Ki refers to a measure of affinity in units of concentration, obtained from inhibition or displacement. Low readings indicate higher affinity, high ones lower affinity. Regarding `Cc1ccccc1-c1cccc(Nc2nccc(-c3nccs3)n2)c1` [Compound I-3], the Ki is < 100 nM. As for `Fc1ccccc1-c1cccc(Nc2nccc(-c3nccs3)n2)c1` [Compound I-6], the Ki was < 100 nM. On the same count and under the same terms, the figure for `c1ccc(Oc2ccc(-c3cccc(Nc4nccc(-c5nccs5)n4)c3)cc2)cc1` [Compound I-9] is < 100 nM. The same measure, in the same setting: to `c1ccc(COc2ccc(Nc3nccc(-c4nccs4)n3)cc2)cc1` [Compound I-10] belongs > 1000 nM; to `COc1ccc(-c2cccc(Nc3nccc(-c4nccs4)n3)c2)c(OC)c1OC` [Compound I-12], < 100 nM.

For the compound `COc1cc(F)cc(-c2cccc(Nc3nccc(-c4nccs4)n3)c2)c1` [Compound I-15], the inhibitory constant (Ki) was < 100 nM. On the same count and under the same terms, to `Fc1ccc(-c2cccc(Nc3nccc(-c4nccs4)n3)c2)c(F)c1` [Compound I-18] belongs < 100 nM; to `c1ccc(COc2cccc(Nc3nccc(-c4nccs4)n3)c2)nc1` [Compound I-20], < 100 nM; to `Clc1ccc(Cl)c(-c2cccc(Nc3nccc(-c4nccs4)n3)c2)c1` [Compound I-21], > 1000 nM.

Regarding `Clc1cccc(-c2cccc(Nc3nccc(-c4nccs4)n3)c2)c1Cl` [Compound I-24], the Ki is < 100 nM. For the compound `FC(F)(F)c1ccccc1-c1cccc(Nc2nccc(-c3nccs3)n2)c1` [Compound I-27], the Ki was < 100 nM.

`Clc1cccc(Nc2nccc(-c3nccs3)n2)n1` [Compound I-28]: the inhibition constant (Ki) is < 100 nM. In the case of `FC(F)(F)c1cccc(-c2cccc(Nc3nccc(-c4nccs4)n3)c2)c1` [Compound I-30], the Ki was < 100 nM.

With `CCOc1ccc(-c2cccc(Nc3nccc(-c4nccs4)n3)c2)cc1` [Compound I-33], the Ki is < 100 nM. On the same count and under the same terms, the figure for `CCOc1ccccc1-c1cccc(Nc2nccc(-c3nccs3)n2)c1` [Compound I-36] is 100 to 1000 nM. Regarding `Cc1ccc(C)c(-c2cccc(Nc3nccc(-c4nccs4)n3)c2)c1` [Compound I-39], the inhibitory constant (Ki) is < 100 nM. The same measure, in the same setting: the figure for `O=[N+]([O-])c1ccc(Nc2nccc(-c3nccs3)n2)cc1` [Compound I-40] is < 100 nM; for `Fc1ccccc1COc1cccc(Nc2nccc(-c3nccs3)n2)c1` [Compound I-41] it is < 100 nM; for `CCOc1cccc(-c2cccc(Nc3nccc(-c4nccs4)n3)c2)c1` [Compound I-42] it is < 100 nM.

Take `CS(=O)(=O)c1ccc(-c2cccc(Nc3nccc(-c4nccs4)n3)c2)cc1` [Compound I-45]: the Ki is < 100 nM. On the same count and under the same terms, to `N#Cc1ccc(-c2cccc(Nc3nccc(-c4nccs4)n3)c2)cc1` [Compound I-48] belongs < 100 nM. Still for that read-out and setting: to `COc1cccc(OC)c1-c1cccc(Nc2nccc(-c3nccs3)n2)c1` [Compound I-51] belongs 100 to 1000 nM; to `COc1ccc(OC)c(-c2cccc(Nc3nccc(-c4nccs4)n3)c2)c1` [Compound I-54], < 100 nM; to `Nc1cccc(-c2cccc(Nc3nccc(-c4nccs4)n3)c2)c1` [Compound I-57], < 100 nM.

Take `CSc1ccc(-c2cccc(Nc3nccc(-c4nccs4)n3)c2)cc1` [Compound I-60]: the Ki is < 100 nM. On the same count and under the same terms, to `c1cncc(-c2cccc(Nc3nccc(-c4nccs4)n3)c2)c1` [Compound I-63] belongs < 100 nM; to `Oc1ccc(-c2cccc(Nc3nccc(-c4nccs4)n3)c2)cc1` [Compound I-66], < 100 nM; to `Oc1ccccc1-c1cccc(Nc2nccc(-c3nccs3)n2)c1` [Compound I-69], < 100 nM. On to `Oc1cccc(-c2cccc(Nc3nccc(-c4nccs4)n3)c2)c1` [Compound I-72], for which the Ki was < 100 nM. Take `COc1cc(O)ccc1-c1cccc(Nc2nccc(-c3nccs3)n2)c1` [Compound I-75]: the inhibition constant Ki was < 100 nM.

Consider `c1cc(Nc2nccc(-c3nccs3)n2)cc(-c2ccc3[nH]ccc3c2)c1` [Compound I-78], for which the Ki was < 100 nM. Still for that read-out and setting: to `N#Cc1cccc(COc2cccc(Nc3nccc(-c4nccs4)n3)c2)c1` [Compound I-79] belongs < 100 nM; to `CN(C)c1ccc(-c2cccc(Nc3nccc(-c4nccs4)n3)c2)cc1` [Compound I-81], < 100 nM. Same read-out and setting: the figure for `Cc1cnc(Nc2cccc(-c3ccc(O)cc3)c2)nc1-c1nccs1` [Compound I-84] is < 100 nM; for `Fc1ccc(COc2cccc(Nc3nccc(-c4nccs4)n3)c2)cc1F` [Compound I-85] it is < 100 nM; for `Cc1cnc(Nc2cccc(-c3cccnc3)c2)nc1-c1nccs1` [Compound I-87] it is < 100 nM. The same measure, in the same setting: to `Cc1cnc(Nc2cccc(-c3cccc(N)c3)c2)nc1-c1nccs1` [Compound I-90] belongs < 100 nM; to `COc1ccc(-c2ccccc2)cc1Nc1ncc(C)c(-c2nccs2)n1` [Compound I-93], > 1000 nM; to `COc1ccc(-c2ccccc2)cc1Nc1nccc(-c2nccs2)n1` [Compound I-96], > 1000 nM.

As for `Cc1cnc(Nc2cccc(C(F)(F)F)c2)nc1-c1nccs1` [Compound I-99], the Ki was < 100 nM.

For the compound `Fc1cccc(COc2cccc(Nc3nccc(-c4nccs4)n3)c2)c1` [Compound I-100], the Ki is < 100 nM. With `Fc1cc(F)cc(COc2cccc(Nc3nccc(-c4nccs4)n3)c2)c1` [Compound I-103], the Ki is < 100 nM. Take `COc1ccc(Nc2nccc(-c3nccs3)n2)cc1Oc1cccc(F)c1` [Compound I-105]: the inhibitory constant (Ki) is < 100 nM. On the same count and under the same terms, to `COc1ccc(Nc2nccc(-c3nccs3)n2)cc1Oc1cccc(Cl)c1` [Compound I-108] belongs 100 to 1000 nM. The same measure, in the same setting: the figure for `COc1ccc(Nc2nccc(-c3nccs3)n2)cc1Oc1ccc(Cl)cc1` [Compound I-111] is < 100 nM; for `COc1ccc(Oc2ccccc2)cc1Nc1nccc(-c2nccs2)n1` [Compound I-114] it is > 1000 nM.

For the compound `COc1ccc(Oc2ccccc2)cc1Nc1ncc(C)c(-c2nccs2)n1` [Compound I-117], the Ki is > 1000 nM.

Another test concerns the target T1, Aurora2 (Homo sapiens, UniProt O14965).
T1 sequence (O14965 1-403): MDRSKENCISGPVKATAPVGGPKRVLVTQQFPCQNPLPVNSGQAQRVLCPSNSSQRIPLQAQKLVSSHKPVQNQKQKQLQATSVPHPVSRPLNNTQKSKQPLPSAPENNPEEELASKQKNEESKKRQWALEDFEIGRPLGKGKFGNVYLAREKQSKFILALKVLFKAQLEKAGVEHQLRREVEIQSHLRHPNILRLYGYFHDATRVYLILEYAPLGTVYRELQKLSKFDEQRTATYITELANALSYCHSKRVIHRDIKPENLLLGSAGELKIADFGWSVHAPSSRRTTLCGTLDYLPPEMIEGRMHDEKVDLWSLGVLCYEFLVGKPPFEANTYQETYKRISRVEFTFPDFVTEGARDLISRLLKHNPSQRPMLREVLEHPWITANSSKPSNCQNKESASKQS
In words: Aurora2 inhibition assay (coupled enzyme assay). The following applies: 800 μM peptide LRRASLG, 70 nM Aurora2, 30° C. It is filed as biochemical. As to the method:
Compounds are screened in the following manner for their ability to inhibit Aurora2 using a standard coupled enzyme assay (Fox et al (1998). Protein Sci 7, 2246). To an assay stock buffer solution containing 0.1M HEPES 7.5, 10 mM MgCl2, 1 mM DTT, 25 mM NaCl, 2.5 mM prosphoenolpyruvate, […], […] pyruvate kinase, […] lactate dehydrogenase, […], and 800 μM peptide (LRRASLG, American Peptide, Sunnyvale, Calif.) is added a DMSO solution of a compound of the present invention to a final concentration of 30 μM. The resulting mixture is incubated at 30° C. for 10 minutes. The reaction was initiated by the addition of 10 μL of Aurora2 stock solution to give a final concentration of 70 nM in the assay. The rates of reaction are obtained by monitoring absorbance at 340 nm over a 5 minute read time at 30° C. using a BioRad Ultramark plate reader (Hercules, Calif.). The IC50 values are determined from the rate data as a function of inhibitor concentration.
as §1
The term IC50 denotes the concentration that gives 50% inhibition. Low values mean inhibition by little substance, high ones a need for much substance. Regarding `c1ccc(COc2ccc(Nc3nccc(-c4nccs4)n3)cc2)cc1` [Compound I-10], the IC50 was > 2000 nM. Take `c1ccc(Oc2ccc(Nc3nccc(-c4nccs4)n3)cc2)cc1` [Compound I-13]: the IC50 was > 2000 nM.

For `c1ccc(COc2cccc(Nc3nccc(-c4nccs4)n3)c2)nc1` [Compound I-20], the half-maximal inhibitory concentration (IC50) was < 500 nM. `c1cncc(COc2cccc(N(Cc3cccnc3)c3nccc(-c4nccs4)n3)c2)c1` [Compound I-26]: the IC50 is < 500 nM. For `Clc1cccc(Nc2nccc(-c3nccs3)n2)n1` [Compound I-28], the IC50 was > 2000 nM.

As for `O=[N+]([O-])c1ccc(Nc2nccc(-c3nccs3)n2)cc1` [Compound I-40], the concentration for half-maximal inhibition (IC50) is > 2000 nM. Still for that read-out and setting: the figure for `Fc1ccccc1COc1cccc(Nc2nccc(-c3nccs3)n2)c1` [Compound I-41] is > 2000 nM; for `COc1ccc(Nc2nccc(-c3nccs3)n2)cc1` [Compound I-70] it is 500 to 2000 nM.

Turning to `N#Cc1cccc(COc2cccc(Nc3nccc(-c4nccs4)n3)c2)c1` [Compound I-79], the IC50 was > 2000 nM. In the case of `Fc1ccc(COc2cccc(Nc3nccc(-c4nccs4)n3)c2)cc1F` [Compound I-85], the half-maximal inhibitory concentration (IC50) is > 2000 nM. Turning to `O=[N+]([O-])c1cccc(Nc2cccc(Nc3nccc(-c4nccs4)n3)c2)c1` [Compound I-97], the half-maximal inhibitory concentration (IC50) is > 2000 nM.

In the case of `Fc1cccc(COc2cccc(Nc3nccc(-c4nccs4)n3)c2)c1` [Compound I-100], the IC50 was > 2000 nM. For `Fc1cc(F)cc(COc2cccc(Nc3nccc(-c4nccs4)n3)c2)c1` [Compound I-103], the IC50 is > 2000 nM. For the compound `COc1ccc(Oc2ccccc2)cc1Nc1nccc(-c2nccs2)n1` [Compound I-114], the IC50 fell in the range of 500 to 2000 nM.
